The results in this text go back to US10105348B2, “Use of 2-(5S-methyl-2-oxo-4R-phenyl-pyrrolidin-1-yl)-acetamide in the treatment of seizures” (Latvian Institute of Organic Synthesis, priority 2015, dated 2018).

Experiment [1] deals with PTZ-induced clonic and tonic seizures. As to the kind of experiment: Timed i.v. pentylenetetrazol (PTZ) infusion seizure threshold test. It counts as in vivo. Particulars: male ICR mice. As for the experimental part:
(§1) Male ICR mice (Harlan Laboratories BV, Netherlands, ICR (CD-1)) weighing 23-25 g were housed under standard conditions (21-23° C., 50%±10% relative humidity, 12 h light-dark cycle) with unlimited access to standard food (R70 diet, Lactamin AB, Sweden) and water. All experimental procedures were carried out in accordance with guidelines of the EU Directive 2010/63/EU and were approved by the Ethics Council of Animal Protection at the Veterinary and Food Service, Riga, Latvia.
(§2) To accurately detect even slight modulatory effects on convulsive tendencies, we employed the more sensitive intravenous (i.v.) administration route of pentylenetetrazol (PTZ) administration (Loscher W, Honack D, Fassbender C P, Nolting B (1991). The role of technical, biological and pharmacological factors in the laboratory evaluation of anticonvulsant drugs. III. Pentylenetetrazole seizure models. Epilepsy Res 8:171-189; Mandhane S N, Aavula K, Rajamannar T (2007). Timed pentylenetetrazol infusion test: a comparative analysis with s.c.PTZ and MES models of anticonvulsant screening in mice. Seizure 16:636-644) and used bicucculine (BIC) to inhibit the GABA pathway and to induce seizures (Meldrum B S (1975). Epilepsy and gamma-aminobutyric acid-mediated inhibition. Int Rev Neurobiol 17:1-36.). Chemoconvulsant-induced clonic and tonic seizures were initiated by inserting a 30-gauge needle into the tail vein of mice and infusing PTZ 1% or BIC 0.01% at a constant rate of 10 μl/1 s to restrained animals. Infusion was halted when forelimb clonus followed by tonic seizures of the full body were observed. Minimal doses of PTZ or BIC (mg/kg of mouse weight) necessary to induce clonic and tonic seizures were considered as an index of seizure threshold.
(§3) 2-(5S-Methyl-2-oxo-4R-phenyl-pyrrolidin-1-yl)-acetamide (E1R) was administered i.p. at doses of 10 and 50 mg/kg. The test session was started 60 min after the administration of E1R or saline.

In experiment [2] the test system is BIC-induced clonic and tonic seizures. As to the kind of experiment: Timed i.v. bicucculine (BIC) infusion seizure threshold test. The format is in vivo. Particulars: male ICR mice. As for the experimental part:
as §1, §2, §3

[3] abbreviates: E1R 10 mg/kg i.p. 60 min before 1% PTZ i.v. infusion.
[4] abbreviates: E1R 50 mg/kg i.p. 60 min before 1% PTZ i.v. infusion.
The mark [5] stands for this setting: E1R 10 mg/kg i.p. 60 min before 0.01% BIC i.v. infusion.
Setting [6] is: E1R 50 mg/kg i.p. 60 min before 0.01% BIC i.v. infusion.

In the case of `C[C@H]1[C@@H](c2ccccc2)CC(=O)N1CC(N)=O` [E1R, 2-(5S-Methyl-2-oxo-4R-phenyl-pyrrolidin-1-yl)-acetamide], the “Dose of PTZ, mg/kg ± SEM, Clonic seizure (threshold)” value in experiment [1] (setting [3]) amounted to 27 ± 2 mg/kg; in experiment [1] (setting [4]) it was 30 ± 1 mg/kg. Further, the figures for the “Dose of PTZ, mg/kg ± SEM, Tonic seizure (threshold)” value in experiment [1] (setting [3]) and in experiment [1] (setting [4]) were 64 ± 6 mg/kg and 80 ± 8 mg/kg, respectively. Also, the “Induction of tonic seizures by PTZ, effect versus saline (in words)” value in experiment [1] (E1R 10 mg/kg i.p.) is “significantly reduced the induction of tonic seizures”. The “Clonic and tonic seizures-inducing doses of PTZ, change versus saline (in words)” value in experiment [1] (E1R 50 mg/kg i.p.) is “significant increased”. In addition, the results for the “Dose of BIC, mg/kg ± SEM, Clonic seizure (threshold)” value in experiment [2] (setting [5]) and in experiment [2] (setting [6]) were 0.42 ± 0.02 mg/kg and 0.48 ± 0.03 mg/kg, respectively. The “Dose of BIC, mg/kg ± SEM, Tonic seizure (threshold)” value in experiment [2] (setting [5]) came out at 0.88 ± 0.08 mg/kg; in experiment [2] (setting [6]), 1.15 ± 0.09 mg/kg. The “Clonic and tonic seizures-inducing doses of BIC, change versus saline (in words)” value in experiment [2] (E1R 50 mg/kg i.p.) was “significant increased”.
